ChEMBL document CHEMBL1201862, “PubChem BioAssay data set” (2004)
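All cell lines were grown in 96-well plates and treated with compound for 48 hours. The concentration for 50% growth inhibition is given as GI50.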 Active and inactive are the calls of the source. Cut-off read from the data, not from the text of the source: active = GI50 up to about 1.1 µM and inactive = higher.

Key:
Assay in all cases: NCI anticancer screen, dose series, 48 h
[1] = system: UACC-257
[2] = system: UACC-62
[3] = system: Malme-3M
[4] = system: SF-268
[5] = system: TK-10
[6] = system: HOP-92
[7] = system: KM12
[8] = system: HL-60
[9] = system: ACHN
[10] = system: NCI-H522
[11] = system: NCI-H23
[12] = system: SK-MEL-2
[13] = system: MDA-N
[14] = system: PC-3
[15] = system: HCC 2998
[16] = system: SK-MEL-5
[17] = system: T47D
[18] = system: BT-549
[19] = system: IGROV-1
[20] = system: SN12C

Measured: GI50

Cc1nnc2sc(-c3ccc(-c4ccccc4Cl)o3)nn12
inactive: [1] 44.5 µM | [2] 35.2 µM | [3] 47.3 µM | [4] 33.9 µM | [5] 45.1 µM | [6] 40.2 µM | [7] 35.2 µM | [8] 19.8 µM | [9] 48.4 µM | [10] 25.4 µM | [11] 24.2 µM | [12] 26.1 µM | [13] 17.9 µM | [14] 37.2 µM | [15] 21.8 µM | [16] 20.9 µM | [17] 20.9 µM | [18] 24 µM | [19] 40.6 µM | [20] 35.4 µM
